Data as given in PubChem BioAssay (NCI).
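Compound exposure: 48 hours, 5 concentrations, 96-well plates. TGI is the concentration that stops growth completely.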

The compounds below were run on A549 NSCLC (assay: growth of human tumour cells (NCI), 48 h).

First: C[C@]12CC[C@H](OC3CCCCO3)CC1=CC[C@@H]1C2CC[C@]2(C)/C(=N/OCCC#N)CCC12 (some centres not stated)
Second: COCOCCCCCO[Si](C)(C)C(C)(C)C
The TGI of the first is higher: greater than 100 µM for the first, 50 µM for the second.

`NC(N)=NNC(=O)CCn1[nH]c(=O)c(Cl)c(Cl)c1=O` and `CC(C)OC(=O)c1cc(NC(=O)C(C)(C)C)c(F)cc1Cl` cannot be ordered by TGI: greater than 100 µM for the first, greater than 100 µM for the second.

With `COC(=O)C1=C(C(=O)OC)C2(C3C(SC)=CC(C)(C)CC3S1)N(Cc1ccccc1)CCN2Cc1ccccc1` (configuration not stated) the TGI was greater than 100 µM.

Each compound was assayed on CCRF-CEM leukemia (assay: growth of human tumour cells (NCI), 48 h).

`NC(N)=NNC(=O)CCn1[nH]c(=O)c(Cl)c(Cl)c1=O` and `CC(C)OC(=O)c1cc(NC(=O)C(C)(C)C)c(F)cc1Cl` cannot be ordered by TGI: greater than 100 µM for the first, greater than 100 µM for the second.

First: COCOCCCCCO[Si](C)(C)C(C)(C)C
Second: COC(=O)C1=C(C(=O)OC)C2(C3C(SC)=CC(C)(C)CC3S1)N(Cc1ccccc1)CCN2Cc1ccccc1 (configuration not stated)
The TGI of the first is lower: 58.1 µM for the first, greater than 100 µM for the second.

Each compound was assayed on 786-0 renal (assay: growth of human tumour cells (NCI), 48 h).

First: C[C@]12CC[C@H](OC3CCCCO3)CC1=CC[C@@H]1C2CC[C@]2(C)/C(=N/OCCC#N)CCC12 (some centres not stated)
Second: COCOCCCCCO[Si](C)(C)C(C)(C)C
The TGI of the first is 2.5-fold higher: 72.2 µM for the first, 29 µM for the second.

`NC(N)=NNC(=O)CCn1[nH]c(=O)c(Cl)c(Cl)c1=O` and `CC(C)OC(=O)c1cc(NC(=O)C(C)(C)C)c(F)cc1Cl` cannot be ordered by TGI: greater than 100 µM for the first, greater than 100 µM for the second.

`COC(=O)C1=C(C(=O)OC)C2(C3C(SC)=CC(C)(C)CC3S1)N(Cc1ccccc1)CCN2Cc1ccccc1` (configuration not stated) gave a TGI greater than 100 µM.

Each compound was assayed on HOP-62 NSCLC (assay: growth of human tumour cells (NCI), 48 h).

`C[C@]12CC[C@H](OC3CCCCO3)CC1=CC[C@@H]1C2CC[C@]2(C)/C(=N/OCCC#N)CCC12` (some centres not stated) and `COC(=O)C1=C(C(=O)OC)C2(C3C(SC)=CC(C)(C)CC3S1)N(Cc1ccccc1)CCN2Cc1ccccc1` (configuration not stated) cannot be ordered by TGI: greater than 100 µM for the first, greater than 100 µM for the second.

`NC(N)=NNC(=O)CCn1[nH]c(=O)c(Cl)c(Cl)c1=O` and `CC(C)OC(=O)c1cc(NC(=O)C(C)(C)C)c(F)cc1Cl` cannot be ordered by TGI: greater than 100 µM for the first, greater than 100 µM for the second.

The compounds below were run on DMS 114 small cell lung (assay: growth of human tumour cells (NCI), 48 h).

Compared with `C[C@]12CC[C@H](OC3CCCCO3)CC1=CC[C@@H]1C2CC[C@]2(C)/C(=N/OCCC#N)CCC12` (some centres not stated), `COCOCCCCCO[Si](C)(C)C(C)(C)C` is lower in TGI: greater than 100 µM for the first, 35.9 µM for the second.

`NC(N)=NNC(=O)CCn1[nH]c(=O)c(Cl)c(Cl)c1=O` and `CC(C)OC(=O)c1cc(NC(=O)C(C)(C)C)c(F)cc1Cl` cannot be ordered by TGI: greater than 100 µM for the first, greater than 100 µM for the second.

`COC(=O)C1=C(C(=O)OC)C2(C3C(SC)=CC(C)(C)CC3S1)N(Cc1ccccc1)CCN2Cc1ccccc1` (configuration not stated) showed a TGI greater than 100 µM.

Each compound was assayed on UO-31 renal (assay: growth of human tumour cells (NCI), 48 h).

Going from `C[C@]12CC[C@H](OC3CCCCO3)CC1=CC[C@@H]1C2CC[C@]2(C)/C(=N/OCCC#N)CCC12` (some centres not stated) to `COCOCCCCCO[Si](C)(C)C(C)(C)C`, the TGI falls from greater than 100 µM to 42.8 µM.

`NC(N)=NNC(=O)CCn1[nH]c(=O)c(Cl)c(Cl)c1=O` and `CC(C)OC(=O)c1cc(NC(=O)C(C)(C)C)c(F)cc1Cl` cannot be ordered by TGI: greater than 100 µM for the first, greater than 100 µM for the second.

`COC(=O)C1=C(C(=O)OC)C2(C3C(SC)=CC(C)(C)CC3S1)N(Cc1ccccc1)CCN2Cc1ccccc1` (configuration not stated) was tested, and the TGI was greater than 100 µM.

What follows are compounds tested on SF-295 CNS (assay: growth of human tumour cells (NCI), 48 h).

Compared with `C[C@]12CC[C@H](OC3CCCCO3)CC1=CC[C@@H]1C2CC[C@]2(C)/C(=N/OCCC#N)CCC12` (some centres not stated), `COCOCCCCCO[Si](C)(C)C(C)(C)C` is lower in TGI: greater than 100 µM for the first, 30.1 µM for the second.

`NC(N)=NNC(=O)CCn1[nH]c(=O)c(Cl)c(Cl)c1=O` and `CC(C)OC(=O)c1cc(NC(=O)C(C)(C)C)c(F)cc1Cl` cannot be ordered by TGI: greater than 100 µM for the first, greater than 100 µM for the second.

Work on `COC(=O)C1=C(C(=O)OC)C2(C3C(SC)=CC(C)(C)CC3S1)N(Cc1ccccc1)CCN2Cc1ccccc1` (configuration not stated) yielded a TGI greater than 100 µM.

The compounds below were run on RXF-631 renal (assay: growth of human tumour cells (NCI), 48 h).

Compared with `C[C@]12CC[C@H](OC3CCCCO3)CC1=CC[C@@H]1C2CC[C@]2(C)/C(=N/OCCC#N)CCC12` (some centres not stated), `COCOCCCCCO[Si](C)(C)C(C)(C)C` is lower in TGI: greater than 100 µM for the first, 52.8 µM for the second.

`NC(N)=NNC(=O)CCn1[nH]c(=O)c(Cl)c(Cl)c1=O` and `CC(C)OC(=O)c1cc(NC(=O)C(C)(C)C)c(F)cc1Cl` cannot be ordered by TGI: greater than 100 µM for the first, greater than 100 µM for the second.

`COC(=O)C1=C(C(=O)OC)C2(C3C(SC)=CC(C)(C)CC3S1)N(Cc1ccccc1)CCN2Cc1ccccc1` (configuration not stated) showed a TGI greater than 100 µM.

Each compound was assayed on ACHN renal (assay: growth of human tumour cells (NCI), 48 h).

Compared with `C[C@]12CC[C@H](OC3CCCCO3)CC1=CC[C@@H]1C2CC[C@]2(C)/C(=N/OCCC#N)CCC12` (some centres not stated), `COCOCCCCCO[Si](C)(C)C(C)(C)C` is lower in TGI: greater than 100 µM for the first, 27.7 µM for the second.

`NC(N)=NNC(=O)CCn1[nH]c(=O)c(Cl)c(Cl)c1=O` and `CC(C)OC(=O)c1cc(NC(=O)C(C)(C)C)c(F)cc1Cl` cannot be ordered by TGI: greater than 100 µM for the first, greater than 100 µM for the second.

`COC(=O)C1=C(C(=O)OC)C2(C3C(SC)=CC(C)(C)CC3S1)N(Cc1ccccc1)CCN2Cc1ccccc1` (configuration not stated) showed a TGI greater than 100 µM.

These compounds were tested on NCI-H460 lung (assay: growth of human tumour cells (NCI), 48 h).

Going from `C[C@]12CC[C@H](OC3CCCCO3)CC1=CC[C@@H]1C2CC[C@]2(C)/C(=N/OCCC#N)CCC12` (some centres not stated) to `COCOCCCCCO[Si](C)(C)C(C)(C)C`, the TGI falls from greater than 100 µM to 43.4 µM.

`NC(N)=NNC(=O)CCn1[nH]c(=O)c(Cl)c(Cl)c1=O` and `CC(C)OC(=O)c1cc(NC(=O)C(C)(C)C)c(F)cc1Cl` cannot be ordered by TGI: greater than 100 µM for the first, greater than 100 µM for the second.

`COC(=O)C1=C(C(=O)OC)C2(C3C(SC)=CC(C)(C)CC3S1)N(Cc1ccccc1)CCN2Cc1ccccc1` (configuration not stated) was tested, and the TGI was greater than 100 µM.

Each compound was assayed on OVCAR-5 ovarian (assay: growth of human tumour cells (NCI), 48 h).

`NC(N)=NNC(=O)CCn1[nH]c(=O)c(Cl)c(Cl)c1=O` and `CC(C)OC(=O)c1cc(NC(=O)C(C)(C)C)c(F)cc1Cl` cannot be ordered by TGI: greater than 100 µM for the first, greater than 100 µM for the second.

First: COCOCCCCCO[Si](C)(C)C(C)(C)C
Second: COC(=O)C1=C(C(=O)OC)C2(C3C(SC)=CC(C)(C)CC3S1)N(Cc1ccccc1)CCN2Cc1ccccc1 (configuration not stated)
The TGI of the first is lower: 44.9 µM for the first, greater than 100 µM for the second.

The compounds below were run on RXF 393 renal (assay: growth of human tumour cells (NCI), 48 h).

`C[C@]12CC[C@H](OC3CCCCO3)CC1=CC[C@@H]1C2CC[C@]2(C)/C(=N/OCCC#N)CCC12` (some centres not stated) and `COCOCCCCCO[Si](C)(C)C(C)(C)C` are within 1.5-fold of each other in TGI: 40.2 µM for the first, 31.9 µM for the second.

`NC(N)=NNC(=O)CCn1[nH]c(=O)c(Cl)c(Cl)c1=O` and `CC(C)OC(=O)c1cc(NC(=O)C(C)(C)C)c(F)cc1Cl` cannot be ordered by TGI: greater than 100 µM for the first, greater than 100 µM for the second.

Work on `COC(=O)C1=C(C(=O)OC)C2(C3C(SC)=CC(C)(C)CC3S1)N(Cc1ccccc1)CCN2Cc1ccccc1` (configuration not stated) yielded a TGI greater than 100 µM.

What follows are compounds tested on IGROV1 ovarian (assay: growth of human tumour cells (NCI), 48 h).

First: C[C@]12CC[C@H](OC3CCCCO3)CC1=CC[C@@H]1C2CC[C@]2(C)/C(=N/OCCC#N)CCC12 (some centres not stated)
Second: COCOCCCCCO[Si](C)(C)C(C)(C)C
The TGI of the first is higher: greater than 100 µM for the first, 69.7 µM for the second.

`NC(N)=NNC(=O)CCn1[nH]c(=O)c(Cl)c(Cl)c1=O` and `CC(C)OC(=O)c1cc(NC(=O)C(C)(C)C)c(F)cc1Cl` cannot be ordered by TGI: greater than 100 µM for the first, greater than 100 µM for the second.

`COC(=O)C1=C(C(=O)OC)C2(C3C(SC)=CC(C)(C)CC3S1)N(Cc1ccccc1)CCN2Cc1ccccc1` (configuration not stated) showed a TGI greater than 100 µM.

These compounds were tested on SNB-19 CNS (assay: growth of human tumour cells (NCI), 48 h).

Going from `C[C@]12CC[C@H](OC3CCCCO3)CC1=CC[C@@H]1C2CC[C@]2(C)/C(=N/OCCC#N)CCC12` (some centres not stated) to `COCOCCCCCO[Si](C)(C)C(C)(C)C`, the TGI falls from greater than 100 µM to 30.6 µM.

`NC(N)=NNC(=O)CCn1[nH]c(=O)c(Cl)c(Cl)c1=O` and `CC(C)OC(=O)c1cc(NC(=O)C(C)(C)C)c(F)cc1Cl` cannot be ordered by TGI: greater than 100 µM for the first, greater than 100 µM for the second.

In the case of `COC(=O)C1=C(C(=O)OC)C2(C3C(SC)=CC(C)(C)CC3S1)N(Cc1ccccc1)CCN2Cc1ccccc1` (configuration not stated), the TGI is reported as greater than 100 µM.
